From ChEMBL document CHEMBL1201862, “PubChem BioAssay data set” (2004) come the findings set out here.

Experiment [1] deals with T1, Potassium channel subfamily K member 9 (Homo sapiens, UniProt Q9NPC2). Nature of the experiment: TASK3 channel blockers, electrophysiology – cell-based, automated electrophysiology, selectivity assay for TASK1 (KCNK3) inhibitor project, SAR follow-up (AID 652210). The experiment is classed as functional.
For experiment [2], the target named is T1, Potassium channel subfamily K member 9. In words: KCNK9 flux blockade, concentration-response – cell-based, FluxOR thallium flux, selectivity assay for TASK1 inhibitor project, SAR follow-up (AID 652211).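 Note: potency is for inhibitors of the channel.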 The experiment is classed as functional.
For experiment [3], the target named is Potassium channel subfamily K member 3 (Rattus norvegicus, UniProt O54912). In words: SAR analysis for the identification of selective inhibitors of the two-pore domain potassium channel TASK1(KCNK3):Automated Electrophysiology. The format is functional.
The target of experiment [4] is T2, Mannose-6-phosphate isomerase (Homo sapiens, UniProt P34949).
T2 sequence (P34949 whole entry): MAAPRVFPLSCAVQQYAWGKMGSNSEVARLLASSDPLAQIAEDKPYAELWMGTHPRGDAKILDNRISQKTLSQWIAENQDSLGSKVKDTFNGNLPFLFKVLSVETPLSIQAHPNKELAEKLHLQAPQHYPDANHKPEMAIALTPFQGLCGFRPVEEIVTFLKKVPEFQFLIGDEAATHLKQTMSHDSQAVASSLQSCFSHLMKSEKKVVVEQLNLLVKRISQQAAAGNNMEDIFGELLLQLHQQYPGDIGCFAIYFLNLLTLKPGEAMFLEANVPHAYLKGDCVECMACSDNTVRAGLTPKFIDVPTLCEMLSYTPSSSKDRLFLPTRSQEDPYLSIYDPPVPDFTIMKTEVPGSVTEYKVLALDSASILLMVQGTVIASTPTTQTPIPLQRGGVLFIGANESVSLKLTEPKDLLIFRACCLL
Nature of the experiment: MPI inhibition at elevated mannose 6-phosphate – biochemical, fluorescence intensity, high mannose 6-phosphate, primary screen (AID 1220).

Experiment [5] addresses T3, Protein Tat (Human immunodeficiency virus type 1 group M subtype B (isolate HXB2)(HIV-1), UniProt P04608).
T3 sequence (P04608 whole entry): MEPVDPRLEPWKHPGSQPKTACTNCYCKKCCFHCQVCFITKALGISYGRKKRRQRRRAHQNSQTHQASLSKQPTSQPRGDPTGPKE
The format is functional.

The target of experiment [6] is Prothrombin (Homo sapiens, UniProt P00734). In words: Thrombin 1536 HTS Dose Response Confirmation. [Related pubchem assays: 1046 (Thrombin 1536 HTS; hits were confirmed in this assay)]. The experiment is classed as functional.
The target in experiment [7] is X-box-binding protein 1 (Homo sapiens, UniProt P17861). The experiment is classed as functional, Cricetulus griseus.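 Note: confirmatory dose-response counter-screen serving a CHOP assay.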
Experiment [8] deals with E3 ubiquitin-protein ligase Mdm2 (Homo sapiens, UniProt Q00987). Nature of the experiment: MDM2-luc reporter signal enhancers, multi-concentration potency testing, MDM2 ubiquitin-protein ligase inhibitor program, whole-cell format, luminescence detection, 384-well microplate (AID 1394).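 Note: MDM2 E3 inhibitors raise luminescence so EC50 is for signal enhancement.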 The format is functional.
Experiment [9] concerns Streptococcus sp. 'group A'. In words: Streptococcus pyogenes SK(-)GAS viability under kanamycin – luminescence, BacTiterGlo, confirmation, counter-screen for streptokinase expression inhibitor project, dose response (AID 1900). The experiment is classed as functional, organism-based.
For experiment [10], the system named is Streptococcus. Nature of the experiment: GAS UMAA2166 growth inhibition – luminescence, BacTiterGlo, counter-screen for streptokinase expression inhibitor project, dose response (AID 1915).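 Note: potency for reduction of bacterial viability or growth.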 The format is functional, organism-based.
Experiment [11] in a line: NIH3T3 cell viability loss – ATP luminescence, mouse fibroblasts, counter-screen, dose response (AID 2010).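 Note: cells exposed to compound for about 90 hours before reading.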 The experiment is classed as functional, cell-based.
Experiment [12] addresses T4, High affinity choline transporter 1 (Homo sapiens, UniProt Q9GZV3).
T4 sequence (Q9GZV3 whole entry): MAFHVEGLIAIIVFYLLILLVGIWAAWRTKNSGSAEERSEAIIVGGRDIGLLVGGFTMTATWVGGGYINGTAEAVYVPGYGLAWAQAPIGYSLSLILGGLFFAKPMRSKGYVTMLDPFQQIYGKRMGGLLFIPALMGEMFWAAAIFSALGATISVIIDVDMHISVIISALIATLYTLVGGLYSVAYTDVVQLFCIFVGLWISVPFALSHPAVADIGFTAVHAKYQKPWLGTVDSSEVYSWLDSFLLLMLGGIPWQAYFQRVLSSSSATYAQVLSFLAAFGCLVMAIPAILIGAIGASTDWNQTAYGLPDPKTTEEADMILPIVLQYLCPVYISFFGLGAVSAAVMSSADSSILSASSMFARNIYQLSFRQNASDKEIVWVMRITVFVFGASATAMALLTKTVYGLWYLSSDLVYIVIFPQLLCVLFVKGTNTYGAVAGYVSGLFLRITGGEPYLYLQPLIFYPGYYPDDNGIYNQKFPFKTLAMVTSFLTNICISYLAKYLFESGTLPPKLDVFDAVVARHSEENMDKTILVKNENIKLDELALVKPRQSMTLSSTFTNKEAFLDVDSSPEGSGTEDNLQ
Nature of the experiment: human choline transporter blockers, potency – cell-based, 5-point CRC, membrane potential dye, dose response (AID 504840). The format is functional.

Experiment [13] can be described thus: Trypanosoma cruzi growth suppression in host cells – NIH3T3 host cells, beta-gal luminescence, confirmation (AID 2044).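 Note: intracellular parasites grown in NIH/3T3 mouse fibroblasts as host cells; luminescent beta-galactosidase reporter signal from transgenic T. cruzi replicating inside host cells; inhibitors lower the luminescence signal.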 The format is functional, cell-based.
For experiment [14], the target named is Sphingosine 1-phosphate receptor 2 (Homo sapiens, UniProt O95136). In words: Dose Response Cell Based Assay for Agonists of the S1P2 Receptor. [Related pubchem assays: 729, 736, 843 ]. The format is functional.
For experiment [15], the target named is T5, Tyrosine-protein phosphatase non-receptor type 7 (Homo sapiens, UniProt P35236).
T5 sequence (P35236 whole entry): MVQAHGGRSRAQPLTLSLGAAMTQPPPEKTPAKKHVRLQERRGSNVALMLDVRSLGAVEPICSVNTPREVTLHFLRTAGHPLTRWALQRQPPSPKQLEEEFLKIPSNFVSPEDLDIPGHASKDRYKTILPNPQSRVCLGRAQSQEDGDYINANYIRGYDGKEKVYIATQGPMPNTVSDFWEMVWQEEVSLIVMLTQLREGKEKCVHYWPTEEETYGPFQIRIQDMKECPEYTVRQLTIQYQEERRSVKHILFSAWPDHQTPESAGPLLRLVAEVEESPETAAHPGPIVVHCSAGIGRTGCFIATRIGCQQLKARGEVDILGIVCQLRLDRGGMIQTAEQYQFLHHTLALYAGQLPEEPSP
In words: HePTP tyrosine phosphatase activity blockers – biochemical, absorbance, leukemia target, primary screen (AID 521). The format is functional.

Experiment [16] has as its target Transthyretin (Homo sapiens, UniProt P02766). Nature of the experiment: Luminescence-based cell-based high throughput dose response assay to identify activators of Transthyretin (TTR) transcription. The experiment is classed as functional.
In experiment [17] the test system is H4. Nature of the experiment: Luminescence Cell-Based Dose Response HTS to Identify Activators of 5'UTR Stem-Loop Driven Prion Protein mRNA Translation in H4 Neuroglioblastoma Cells. [Related pubchem assays: 1829 (Project Summary), 1814 (Primary HTS)]. The experiment is classed as functional. Particulars: Homo sapiens.
Experiment [18] can be described thus: Luminescence Cell-Based Dose Confirmation HTS to Identify Activators of 5'UTR Stem-Loop Driven Alpha-Synuclein mRNA Translation in H4 Neuroglioblastoma Cells. [Related pubchem assays: 1829 (Project Summary), 1814 (Primary HTS)]. The format is functional.
Experiment [19] is described as follows: Luminescence Cell-Based Dose Response HTS to Identify Activators of Luciferase Translation or Activity in H4 […] Cells. [Related pubchem assays: 1829 (Project Summary), 1814 (Primary HTS)]. The format is functional.
The target in experiment [20] is T6, Estrogen receptor beta (Homo sapiens, UniProt Q92731).
Experiment [21] deals with E3 ubiquitin-protein ligase UHRF1 (Homo sapiens, UniProt Q96T88). Nature of the experiment: Counterscreen for inhibitors of 5-meCpG-binding domain protein 2 (MBD2): TRFRET-based biochemical high throughput dose response assay to identify inhibitors of binding of ubiquitin-like with PHD and ring finger domains 1 (UHRF1) to methylated oligonucleotide.
Experiment [22] concerns the target T6, Estrogen receptor beta. Nature of the experiment: blockers of SRC-3 recruitment to ERβ – biochemical, ELISA, streptavidin-HRP readout, orthogonal assay, confirmation (AID 1060).

Molecules are shown by their SMILES. Activity calls are given as the source filed them. Some results are limits rather than exact numbers.

T1 sequence (Q9NPC2 whole entry): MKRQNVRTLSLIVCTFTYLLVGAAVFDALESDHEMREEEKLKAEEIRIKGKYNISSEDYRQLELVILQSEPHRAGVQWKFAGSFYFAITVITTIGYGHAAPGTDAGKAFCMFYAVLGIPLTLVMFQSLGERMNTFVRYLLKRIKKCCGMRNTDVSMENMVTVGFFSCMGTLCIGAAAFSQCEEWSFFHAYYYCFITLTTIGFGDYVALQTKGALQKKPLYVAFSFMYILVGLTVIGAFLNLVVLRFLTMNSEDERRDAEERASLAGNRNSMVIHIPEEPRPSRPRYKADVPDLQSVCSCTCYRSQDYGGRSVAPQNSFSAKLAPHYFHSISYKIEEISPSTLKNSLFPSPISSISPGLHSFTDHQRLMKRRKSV
T6 sequence (Q92731 whole entry, the tested form may be a part): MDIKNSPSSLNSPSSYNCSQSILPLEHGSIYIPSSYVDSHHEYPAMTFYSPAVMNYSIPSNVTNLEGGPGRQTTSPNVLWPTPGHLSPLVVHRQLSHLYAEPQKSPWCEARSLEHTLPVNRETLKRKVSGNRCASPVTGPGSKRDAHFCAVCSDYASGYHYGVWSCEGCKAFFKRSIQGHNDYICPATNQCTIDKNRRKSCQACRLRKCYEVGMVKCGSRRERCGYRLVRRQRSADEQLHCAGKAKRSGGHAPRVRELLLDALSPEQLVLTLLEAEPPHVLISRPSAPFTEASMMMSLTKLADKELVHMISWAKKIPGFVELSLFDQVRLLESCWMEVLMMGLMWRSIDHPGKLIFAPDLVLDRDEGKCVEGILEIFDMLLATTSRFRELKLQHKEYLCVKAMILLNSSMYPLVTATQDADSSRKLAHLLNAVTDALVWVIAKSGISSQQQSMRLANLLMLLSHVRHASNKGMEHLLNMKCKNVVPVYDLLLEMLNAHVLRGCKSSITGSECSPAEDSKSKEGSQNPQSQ
Chain of E3 ubiquitin-protein ligase Mdm2 (Q00987 whole entry): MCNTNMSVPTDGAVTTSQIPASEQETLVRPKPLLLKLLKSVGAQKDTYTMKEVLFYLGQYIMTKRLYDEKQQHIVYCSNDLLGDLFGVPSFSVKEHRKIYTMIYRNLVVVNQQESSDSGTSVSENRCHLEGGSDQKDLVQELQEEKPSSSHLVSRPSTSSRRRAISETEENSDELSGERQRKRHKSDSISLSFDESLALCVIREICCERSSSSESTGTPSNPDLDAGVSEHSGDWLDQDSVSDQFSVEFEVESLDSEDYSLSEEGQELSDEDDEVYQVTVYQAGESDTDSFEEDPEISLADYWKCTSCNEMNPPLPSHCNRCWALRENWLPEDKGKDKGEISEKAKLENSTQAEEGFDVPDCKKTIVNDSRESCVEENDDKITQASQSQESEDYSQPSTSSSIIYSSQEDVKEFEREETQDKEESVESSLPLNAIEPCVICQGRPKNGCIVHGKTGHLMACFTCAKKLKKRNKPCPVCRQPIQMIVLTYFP
Chain of Sphingosine 1-phosphate receptor 2 (O95136 whole entry): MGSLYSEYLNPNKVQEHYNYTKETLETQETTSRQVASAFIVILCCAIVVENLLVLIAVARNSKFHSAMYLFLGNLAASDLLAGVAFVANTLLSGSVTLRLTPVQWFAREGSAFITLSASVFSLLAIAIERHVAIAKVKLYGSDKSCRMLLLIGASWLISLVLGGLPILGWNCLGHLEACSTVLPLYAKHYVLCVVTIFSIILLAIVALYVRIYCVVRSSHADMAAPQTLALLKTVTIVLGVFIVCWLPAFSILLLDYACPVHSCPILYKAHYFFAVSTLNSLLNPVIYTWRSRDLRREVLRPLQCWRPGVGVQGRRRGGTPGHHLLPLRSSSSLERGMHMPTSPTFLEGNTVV
Chain of X-box-binding protein 1 (P17861 whole entry): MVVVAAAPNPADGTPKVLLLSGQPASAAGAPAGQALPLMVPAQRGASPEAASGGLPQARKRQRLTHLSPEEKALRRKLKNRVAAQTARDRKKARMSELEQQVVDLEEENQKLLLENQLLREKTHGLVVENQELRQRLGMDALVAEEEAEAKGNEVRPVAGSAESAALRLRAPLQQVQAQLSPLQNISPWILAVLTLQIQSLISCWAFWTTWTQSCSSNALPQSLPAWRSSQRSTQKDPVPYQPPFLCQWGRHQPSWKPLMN
Chain of Potassium channel subfamily K member 3 (O54912 whole entry, the tested form may be a part): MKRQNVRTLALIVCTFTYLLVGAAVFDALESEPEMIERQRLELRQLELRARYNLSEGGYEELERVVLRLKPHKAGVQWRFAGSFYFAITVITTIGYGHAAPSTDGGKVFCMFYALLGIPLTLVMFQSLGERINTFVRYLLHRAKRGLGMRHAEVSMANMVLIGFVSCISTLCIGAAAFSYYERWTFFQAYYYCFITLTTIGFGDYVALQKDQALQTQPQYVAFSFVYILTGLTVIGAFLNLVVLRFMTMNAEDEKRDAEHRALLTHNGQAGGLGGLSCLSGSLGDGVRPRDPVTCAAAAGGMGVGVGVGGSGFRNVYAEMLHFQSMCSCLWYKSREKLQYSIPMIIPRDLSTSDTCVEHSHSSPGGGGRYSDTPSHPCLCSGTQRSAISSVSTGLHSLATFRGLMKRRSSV
Chain of E3 ubiquitin-protein ligase UHRF1 (Q96T88 whole entry, the tested form may be a part): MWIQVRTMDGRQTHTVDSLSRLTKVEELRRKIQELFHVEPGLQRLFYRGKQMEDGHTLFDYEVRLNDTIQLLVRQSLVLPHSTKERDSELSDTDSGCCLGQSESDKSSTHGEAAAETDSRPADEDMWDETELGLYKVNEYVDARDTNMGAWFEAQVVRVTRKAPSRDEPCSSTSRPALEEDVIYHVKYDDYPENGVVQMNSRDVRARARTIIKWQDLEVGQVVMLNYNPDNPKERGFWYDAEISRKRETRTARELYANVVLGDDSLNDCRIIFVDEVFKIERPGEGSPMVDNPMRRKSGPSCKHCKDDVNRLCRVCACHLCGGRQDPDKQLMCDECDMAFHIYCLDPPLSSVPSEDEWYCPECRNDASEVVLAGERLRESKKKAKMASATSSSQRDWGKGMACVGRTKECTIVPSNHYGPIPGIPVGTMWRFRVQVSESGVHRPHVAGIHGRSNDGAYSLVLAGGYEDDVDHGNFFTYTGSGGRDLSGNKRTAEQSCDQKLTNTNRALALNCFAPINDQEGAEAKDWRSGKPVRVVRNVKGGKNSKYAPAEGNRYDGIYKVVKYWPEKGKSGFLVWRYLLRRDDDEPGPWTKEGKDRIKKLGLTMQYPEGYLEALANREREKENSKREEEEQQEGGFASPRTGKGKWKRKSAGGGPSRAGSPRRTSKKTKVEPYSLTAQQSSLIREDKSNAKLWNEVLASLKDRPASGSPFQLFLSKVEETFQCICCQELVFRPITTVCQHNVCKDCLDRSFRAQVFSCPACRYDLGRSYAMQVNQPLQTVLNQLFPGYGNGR

Consider `COc1ccccc1C(=O)Nc1cccc(NC(=O)c2cccc(C)c2)c1`, for which the IC50 in experiment [1] is 0.48 µM (active); in experiment [2], 0.26 µM (active); in experiment [3], 0.012 µM (active).
For `Nc1cccc2c1=NC1(CCCCC1)[N+]=2[O-]`, the IC50 is > 50 µM (not active) in experiment [4], > 100 µM (inconclusive) in experiment [5] and > 50 µM (not active) in experiment [6].
As to `CC(C)c1ccc2c(c1)C1(NN=C(c3ccccc3)S1)C(=O)N2` (configuration not stated), the “Absolute IC50 (XBP1)” value in experiment [7] came to 10 µM. In addition, the EC50 in [8] was 1.42 µM (active); in experiment [9] it was < 0.06 µM (active); in experiment [10], 2.81 µM (active); in experiment [11], 6.8 µM (active); in [13] it was 0.333 µM (active). Further, in experiment [12], the concentration for half-maximal inhibition (IC50) was 12.6 µM (active).
In the case of `O=C(NCC1(c2ccccc2)CCCC1)C(=O)N1CCOCC1`, in [14], the EC50 is > 50 µM (not active).
Take `O=C(Nc1ccccc1)c1ccc(NCC2CCCO2)c(S(=O)(=O)N2CCOCC2)c1` (configuration not stated): in experiment [15], the concentration for half-maximal inhibition (IC50) is reported as > 100 µM (not active).
For the compound `COc1cccc(-c2csc(NC(=O)C3CC3)n2)c1`, the EC50 in [16] was > 167 µM (inactive); in experiment [17], > 120 µM (not active); in experiment [18], 94 µM (active); in experiment [19], 33.5 µM (active).
Regarding `Cc1onc(-c2ccccc2Cl)c1C(=O)NCc1ccco1`, the IC50 in experiment [20] is > 50 µM (not active); in experiment [21] it was > 43.8 µM (inactive); in experiment [22], > 50 µM (not active).
